{
  "source": "paper PMC10041525",
  "about": "“New Dual Inhibitors of Bacterial Topoisomerases with Broad-Spectrum Antibacterial Activity and In Vivo Efficacy against Vancomycin-Intermediate Staphylococcus aureus” (Journal of Medicinal Chemistry, 2023)",
  "key": {"[1]": {"system": "Neisseria gonorrhoeae (n = 12)", "assay": "MIC broth microdilution at IHMA Europe", "type": "cell-based", "conditions": "for MIC: Neisseria gonorrhoeae, read-out: MIC"}, "S. pneumoniae ATCC 49619": {"system": "S. pneumoniae ATCC 49619", "set-up": "method as in earlier work", "conditions": "QC range for S. pneumoniae ATCC 49619, ref CLSI; cited from earlier work"}, "E. coli ATCC 25922": {"system": "E. coli ATCC 25922", "set-up": "method as in earlier work", "conditions": "QC range for E. coli ATCC 25922, ref CLSI; cited from earlier work"}, "[2]": {"system": "N. gonorrhoeae ATCC 49226", "set-up": "method as in earlier work", "conditions": "QC range for N. gonorrhoeae ATCC 49226, ref CLSI; cited from earlier work"}, "[3]": {"system": "N. gonorrhoeae ATCC 49226", "assay": "IHMA QC MIC", "type": "cell-based", "conditions": "Neisseria gonorrhoeae, ATCC49226; QC strain N. gonorrhoeae ATCC 49226, test date 2021-11-18; read-out: MIC", "text": "Supplement jm2c01905_si_004.xlsx, sheet \"QC\" | column: MIC [µg/mL]"}, "H. influenzae ATCC 49247": {"system": "H. influenzae ATCC 49247", "set-up": "method as in earlier work", "conditions": "QC range for H. influenzae ATCC 49247, ref CLSI; cited from earlier work"}},
  "note": "Like-named read-outs stand apart in the source and are kept apart here.",
  "data": [
    {"smiles": "COCC1=C(C(=O)O)N2C(=O)[C@@H](NC(=O)/C(=N\\OC)c3csc(N)n3)[C@H]2SC1", "note": "[Cefpodoxime, cefpodoxime]", "values": [
      {"measurement": "Cumulative % at MIC", "setting": "[1]; MIC 0.015 µg/mL", "result": 8.3, "unit": "%"},
      {"measurement": "No. of isolates at MIC", "setting": "[1]; MIC 0.015 µg/mL", "result": 1},
      {"measurement": "Cumulative % at MIC", "setting": "[1]; MIC 0.03 µg/mL", "result": 16.7, "unit": "%"},
      {"measurement": "No. of isolates at MIC", "setting": "[1]; MIC 0.03 µg/mL", "result": 1},
      {"measurement": "Cumulative % at MIC", "setting": "[1]; MIC 0.06 µg/mL", "result": 41.7, "unit": "%"},
      {"measurement": "No. of isolates at MIC", "setting": "[1]; MIC 0.06 µg/mL", "result": 3},
      {"measurement": "Cumulative % at MIC", "setting": "[1]; MIC 0.5 µg/mL", "result": 66.7, "unit": "%"},
      {"measurement": "No. of isolates at MIC", "setting": "[1]; MIC 0.5 µg/mL", "result": 1},
      {"measurement": "Cumulative % at MIC", "setting": "[1]; MIC 1 µg/mL", "result": 83.3, "unit": "%"},
      {"measurement": "No. of isolates at MIC", "setting": "[1]; MIC 1 µg/mL", "result": 2},
      {"measurement": "Cumulative % at MIC", "setting": "[1]; MIC 2 µg/mL", "result": 100.0, "unit": "%"},
      {"measurement": "No. of isolates at MIC", "setting": "[1]; MIC 2 µg/mL", "result": 2},
      {"measurement": "Cumulative % at MIC", "setting": "[1]; MIC […]", "result": 58.3, "unit": "%"},
      {"measurement": "No. of isolates at MIC", "setting": "[1]; MIC […]", "result": 2},
      {"measurement": "MIC", "setting": "[1]; isolate IHMA 1123853", "result": 1, "unit": "µg/mL"},
      {"measurement": "MIC", "setting": "[1]; isolate IHMA 1130935", "result": 0.03, "unit": "µg/mL"},
      {"measurement": "MIC", "setting": "[1]; isolate IHMA 1130989", "result": 0.015, "unit": "µg/mL"},
      {"measurement": "MIC", "setting": "[1]; isolate IHMA 1130991", "result": 1, "unit": "µg/mL"},
      {"measurement": "MIC", "setting": "[1]; isolate IHMA 1137292", "result": 0.5, "unit": "µg/mL"},
      {"measurement": "MIC", "setting": "[1]; isolate IHMA 1145734", "result": 0.25, "unit": "µg/mL"},
      {"measurement": "MIC", "setting": "[1]; isolate IHMA 1145735", "result": 0.06, "unit": "µg/mL"},
      {"measurement": "MIC", "setting": "[1]; isolate IHMA 1165897", "result": 0.06, "unit": "µg/mL"},
      {"measurement": "MIC", "setting": "[1]; isolate IHMA 1194748", "result": 0.06, "unit": "µg/mL"},
      {"measurement": "MIC", "setting": "[1]; isolate IHMA 1194750", "result": 0.25, "unit": "µg/mL"},
      {"measurement": "MIC", "setting": "[1]; isolate IHMA 1546199", "result": 2, "unit": "µg/mL"},
      {"measurement": "MIC", "setting": "[1]; isolate IHMA 1546215", "result": 2, "unit": "µg/mL"},
      {"measurement": "MIC, CLSI Range", "setting": "S. pneumoniae ATCC 49619", "result": "0,03 - 0,12 µg/mL"},
      {"measurement": "MIC, CLSI Range", "setting": "E. coli ATCC 25922", "result": "0,25 - 1 µg/mL"},
      {"measurement": "MIC, CLSI Range", "setting": "[2]", "result": "0,03 - 0,12 µg/mL"},
      {"measurement": "MIC", "setting": "[3]", "result": 0.06, "unit": "µg/mL"},
      {"measurement": "MIC, CLSI Range", "setting": "H. influenzae ATCC 49247", "result": "0,25 - 1 µg/mL"}
    ]}
  ]
}
